# Measurements from patent US20250312469A1 (CANGET BIOTEKPHARMA, priority 2024, published 2025).
# Columns and labels:
# [1] = in vivo; settings: female, SCID, mouse; for Tmax / half-life: po
# [2] = Hepatocyte stability; settings: for hepatocyte CLint at 0.5 μM / half-life at 0.5 μM: both, human, hepatocytes; for hepatocyte CLint at 0.5 μM: pH 7.4, Clint (intrinsic clearance); for hepatocyte CLint at 0.5 μM / half-life at 0.5 μM / % Remaining: cryopreserved human hepatocytes; for half-life at 0.5 μM: pH 7.4, Half-life
# [3] = system: human hepatocytes; experiment: Cell viability (MTS) after CYP induction treatment
# Experimental: Vehicle controls were treated in parallel with hepatocyte culture medium. […] (2) After the CYP induction treatment, the cells were used for a cell viability assay. […] The absorbance of formazan, which is proportional to the number of viable cells, was measured spectrophotometrically using the CellTiter 96 AQueous ONE Solution Cell Proliferation Assay. […] (3) Total RNA was isolated from the treated cells using the RNeasy mini kit (Qiagen, Valencia, CA, USA) and treated with RNase-free DNase (Qiagen) following the manufacturer's protocols. The concentration of RNA was determined using a Qubit Fluorometer with a Qubit RNA HS assay kit (Invitrogen). cDNA was synthesized from up to 1 μg of the total RNA harvested from the cells using a QuantiTect RT kit (Qiagen). Analysis of gene expression by qPCR was performed using the LightCycler 480 System (Roche Diagnostics Corporation, Indianapolis, IN, USA).
# [4] = in vivo; settings: SCID, mouse, po
# [5] = system: pancreatic cancer PDX14244 or PDX17624 tumors; experiment: Western blots of pancreatic cancer PDX tumors after oral treatment; assay type: in vivo, SCID mice; settings: 5 mg/kg oral; day 1-3
# Experimental: The collected tumor tissues were then homogenized with untrasound and analyzed using the corresponding antibodies for DDX5, Agrin, YAP1, p-FAK, FAK, Integrin and Actin via Western blots. Actin expression is the internal control of total protein loading.
# For frozen prostate cancer tissue specimens and their adjacent non-tumor tissues (if any) obtained from Roswell Park pathology network, 30-50 mg of each tissue in a 1.5 Eppendorf tube containing 500 μL of 2×SDS lysis buffer containing Tris pH 6.8+4% SDS+10% Glycerol were homogenized through ultrasound treatment for 10-15 second per time with 3-6 times until tumor tissue was lysed. After all tissues were processed, 1.5 mL tubes were centrifuged at 13,000 rom in a microcentrifuge for 1-2 min and then the supernatant in each tube was transferred into a new 1.5 mL tube for protein concentration measurement (refer to the section of “Studies with Human patient tumor specimens” for more information). […] Proteins of interest were detected using Western Lightning ECL-Plus (Perkin Elmer, Waltham, MA) and visualized by various times (3-120 seconds) of exposure. Actin, tubulin and/or GAPDH were detected as the internal control to normalize total protein loading for each sample.
# [6] = system: Agrin mRNA; experiment: Real-time RT-PCR of Agrin mRNA in Panc-1 and MiaPaca2 cells; assay type: cell-based, human
# Experimental: Real time quantitative (q) RT-PCR: Real time RT-PCR methods were described previously (9, 56). Pertinent to this study, total RNAs were extracted from cancer cells using TRI REAGENT RT (Molecular Research Center), and 5 μg per sample was converted to cDNA with anchored oligo (dT) primers using RevertAid First Strand cDNA Synthesis Kit (Thermo Fisher Scientific, Catalog No. K1622) following the manufacturer's instructions. Individual reverse transcription (RT) reactions of 20 μL were then diluted to 200 μL with sterile H2O. Five microliters of diluted RT reaction were used for real-time qPCR using Maxima SYBR Green/ROX qPCR Master Mix (2×, Thermo Fisher Scientific, Catalog No. K0223). The primers used in qPCR were as follows: 5′-GGC GCA CAG CAC AAG AGG-3′ (DDX5 qPCR-F, forward) and 5′-ATGGCAGGAAGCAAATAAGACAA-3′ (DDX5 qPCR-R, reverse); 5′-CTTCTGCTTCAAGGAGCTGGAAG-3′ (hsv5p2, survivin, forward) and 5′-GCACTTTCTTCGCAGTTTCCTC-3′ (hvs3p2, survivin, reverse); 5′-CCACAGCAAACCTCCTCACAG-3′ (myc5, c-Myc, forward) and 5′-GCAGGATAGTCCTTCCGAGTG-3′ (myc3, c-Myc, reverse); 5′-GTCTCCTCTGACTTCAACAGCG-3′ (hGAPDH-5, forward) and 5′-ACCACCCTGTTGCTGTAGCCAA-3′ (hGAPDH-3, reverse). GAPDH was used as an internal control. […] The data were analyzed using the Applied Biosystems 7300 Real Time PCR System and normalized to GAPDH.
smiles,measurement,setting,value
CCC1(O)C(=O)OCc2c1cc1n(c2=O)Cc2cc3cc4c(cc3nc2-1)OCO4 (stereo not drawn) [FL118],Tmax,[1]; HT29 tumor,1 h
same,half-life,[1]; HT29 tumor,4.24 h
same,Tmax,[1]; SW620 tumor,1 h
same,half-life,[1]; SW620 tumor,2.99 h
same,bioavailability,"[1]; plasma, oral",84.6%
same,Tmax,[1]; plasma,0.5 h
same,half-life,[1]; plasma,5.12 h
same,half-life,[2]; 0.5 μM,long half-life
same,hepatocyte CLint at 0.5 μM,[2]; calculated (in parentheses),2.96 µL/min/1e6 cells
same,hepatocyte CLint at 0.5 μM,[2]; bound,< 3.85 µL/min/1e6 cells
same,half-life at 0.5 μM,"[2]; calculated (in parentheses), calculated half-life longer than the experiment",2.6 h
same,half-life at 0.5 μM,[2]; expressed as > the longest incubation time (120 min),> 2 h
same,% Remaining,[2]; 0 min,100%
same,% Remaining,[2]; 15 min,79%
same,% Remaining,[2]; 30 min,71%
same,% Remaining,[2]; 60 min,66%
same,% Remaining,[2]; 120 min,58%
same,% of Vehicle-treated Cells,"[3]; donor 1, 0.01 μM",91%
same,Formazan Absorbance Mean,"[3]; donor 1, 0.01 μM",1.48
same,% of Vehicle-treated Cells,"[3]; donor 1, 0.1 μM",73%
same,Formazan Absorbance Mean,"[3]; donor 1, 0.1 μM",1.20
same,% of Vehicle-treated Cells,"[3]; donor 1, 1 μM",31%
same,Formazan Absorbance Mean,"[3]; donor 1, 1 μM",0.512
same,cytotoxicity,"[3]; donor 1, 0.1 and 1 μM",dose-dependent cytotoxicity
same,% of Vehicle-treated Cells,"[3]; donor 2, 0.001 μM",103%
same,Formazan Absorbance Mean,"[3]; donor 2, 0.001 μM",1.53
same,% of Vehicle-treated Cells,"[3]; donor 2, 0.005 μM",101%
same,Formazan Absorbance Mean,"[3]; donor 2, 0.005 μM",1.51
same,% of Vehicle-treated Cells,"[3]; donor 2, 0.01 μM",99%
same,Formazan Absorbance Mean,"[3]; donor 2, 0.01 μM",1.48
same,cytotoxicity,"[3]; donor 2, 0.001 to 0.01 μM",No cytotoxicity
same,% of Vehicle-treated Cells,"[3]; donor 3, 0.025 μM",94%
same,Formazan Absorbance Mean,"[3]; donor 3, 0.025 μM",1.63
same,% of Vehicle-treated Cells,"[3]; donor 3, 0.05 μM",104%
same,Formazan Absorbance Mean,"[3]; donor 3, 0.05 μM",1.80
same,cytotoxicity,"[3]; donor 3, 0.025 and 0.05 μM",did not show cytotoxicity
same,MTD at 4 weekly doses,[4],~10 mg/kg
same,"DDX5, Agrin, YAP1, p-FAK, Integrin in PDX tumors",[5],more profound decrease
same,Agrin mRNA,[6],inhibits Agrin mRNA
